The values that follow come from PubChem BioAssay (NCI).

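96-well plates; 48 h exposure; 5 concentrations. Endpoints by linear interpolation between flanking doses. Not reached: highest tested concentration assigned. The concentration for 50% growth inhibition is given as GI50. TGI marks complete inhibition of growth.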 Some results are limits rather than exact numbers.

Among the test systems are COLO 205 colon; K-562 leukemia; HT29 colon; NCI/ADR-RES ovarian; MCF7 breast; HOP-62 NSCLC; HS 578T breast; SK-MEL-28 melanoma; A549 NSCLC; A498 renal.
Common to all, as to assay: NCI anticancer screen, dose series, 48 h

Regarding `COC(=O)Cc1ccc(Oc2cnc3cc(F)c(F)cc3n2)cc1`, the GI50 in the test with COLO 205 colon is > 100 µM; in the test on K-562 leukemia it was 31.1 µM; with HT29 colon, 58.1 µM; with NCI/ADR-RES ovarian it was 23.8 µM; with MCF7 breast, > 100 µM; in the test on HOP-62 NSCLC, > 100 µM. Also, the GI50 in the test with HS 578T breast, in the test with SK-MEL-28 melanoma and in the test on A549 NSCLC was > 100 µM throughout. The TGI was > 100 µM with COLO 205 colon; 94.8 µM in the test with K-562 leukemia; > 100 µM in the test with HT29 colon; 81.1 µM in the test with NCI/ADR-RES ovarian; > 100 µM in the test on MCF7 breast; > 100 µM in the test on HOP-62 NSCLC. The TGI with HS 578T breast, with SK-MEL-28 melanoma and with A549 NSCLC was > 100 µM in each case.

For the molecule `N#CCN/C=C\C(=O)c1ccc(Cl)cc1`, the GI50 was 32.7 µM in the test on COLO 205 colon; 31.1 µM in the test on K-562 leukemia; 28.9 µM with NCI/ADR-RES ovarian; 38.6 µM with A498 renal; 32.5 µM in the test on MCF7 breast; 38.6 µM in the test on HOP-62 NSCLC. Also, the GI50 is 37.1 µM with HS 578T breast, 40.1 µM in the test on SK-MEL-28 melanoma and > 100 µM in the test on A549 NSCLC. Besides, the TGI with COLO 205 colon is > 100 µM; in the test with K-562 leukemia, > 100 µM; in the test with NCI/ADR-RES ovarian, 79.5 µM; with A498 renal it was > 100 µM; in the test on MCF7 breast, > 100 µM; with HOP-62 NSCLC it was > 100 µM. For the same molecule, the TGI in the test with HS 578T breast, with SK-MEL-28 melanoma and in the test with A549 NSCLC was > 100 µM each time.

Turning to `COc1ccc(/C=N\Nc2ccc([N+](=O)[O-])cn2)cc1OC`, the GI50 in the test on K-562 leukemia is > 100 µM; in the test on HT29 colon, > 100 µM; with NCI/ADR-RES ovarian it was > 100 µM; in the test with A498 renal, 3.43 µM; in the test on HOP-62 NSCLC it was 10.5 µM; in the test on HS 578T breast, 21 µM. Also, the GI50 in the test with SK-MEL-28 melanoma is > 100 µM. Further, the TGI in the test with K-562 leukemia is > 100 µM; with HT29 colon, > 100 µM; in the test on NCI/ADR-RES ovarian, > 100 µM; in the test on A498 renal it was 59.6 µM; in the test with HOP-62 NSCLC, > 100 µM; with HS 578T breast it was > 100 µM. The TGI in the test on SK-MEL-28 melanoma is > 100 µM.

Consider `COc1cccc(/C=C/C(=O)c2ccc(Cl)cc2Cl)c1`, for which the GI50 was 8.85 µM in the test with COLO 205 colon; 3.22 µM in the test with K-562 leukemia; 15.1 µM in the test on HT29 colon; 11.6 µM in the test with NCI/ADR-RES ovarian; 11.9 µM in the test with A498 renal; 7.84 µM in the test on MCF7 breast. The GI50 is 22.3 µM in the test with HS 578T breast, 12.9 µM with SK-MEL-28 melanoma and 10.5 µM in the test with A549 NSCLC. In addition, the TGI in the test on COLO 205 colon is 18.4 µM; in the test on K-562 leukemia, 26.9 µM; with HT29 colon, > 50 µM; in the test with NCI/ADR-RES ovarian, 33.1 µM; with A498 renal, 21 µM; in the test with MCF7 breast it was 47.1 µM. Besides, the TGI in the test with HS 578T breast was > 50 µM; in the test on SK-MEL-28 melanoma, 30.2 µM; with A549 NSCLC, 22.7 µM.

`Cc1cn2c(/C=N/N=C(N)N)c(-c3cccs3)nc2s1`: the GI50 in the test with COLO 205 colon was 8.16 µM; in the test with K-562 leukemia, 2.06 µM; in the test on HT29 colon, 2.1 µM; with NCI/ADR-RES ovarian, 15.3 µM; in the test on MCF7 breast, 2.79 µM; with HS 578T breast, 11.4 µM. In the test on A549 NSCLC, the GI50 was 10.6 µM. Moreover, the TGI with COLO 205 colon is 69.4 µM; in the test on K-562 leukemia, 5.43 µM; in the test with HT29 colon it was 7.14 µM; in the test on NCI/ADR-RES ovarian it was 28.7 µM; in the test on MCF7 breast, 13.7 µM; in the test with HS 578T breast, 32.6 µM. In the test on A549 NSCLC, this molecule yielded a TGI of 31.1 µM.

As to `O=Cc1cccc2c1Oc1c(cccc1C(=O)O)S2`, the TGI is 55.6 µM with COLO 205 colon; > 100 µM in the test on HT29 colon; > 100 µM with NCI/ADR-RES ovarian; > 100 µM in the test on A498 renal; > 100 µM in the test on MCF7 breast; > 100 µM with HOP-62 NSCLC. For the same molecule, the TGI in the test with HS 578T breast, in the test on SK-MEL-28 melanoma and in the test with A549 NSCLC was > 100 µM throughout.

`N#CC1=C(N)NC(N2CCOCC2)=NC12Nc1ccccc1N2`: the GI50 is 24.1 µM in the test on COLO 205 colon; > 100 µM with K-562 leukemia; 32.6 µM in the test with HT29 colon; 28.3 µM in the test with NCI/ADR-RES ovarian; 6.09 µM in the test with HOP-62 NSCLC; 18.9 µM with HS 578T breast. The GI50 in the test with SK-MEL-28 melanoma was 55.8 µM; in the test on A549 NSCLC, 39.8 µM. In addition, the TGI with COLO 205 colon is > 100 µM; with K-562 leukemia it was > 100 µM; with HT29 colon it was > 100 µM; with NCI/ADR-RES ovarian, 87 µM; in the test with HOP-62 NSCLC it was 32.5 µM; with HS 578T breast it was 54.2 µM. The TGI in the test with SK-MEL-28 melanoma and in the test with A549 NSCLC was > 100 µM throughout.

Take `Nc1ccn(C2OC(COC(=O)C34CC5CC(CC(C5)C3)C4)C(O)C2O)c(=O)n1` (centres undefined): the TGI with COLO 205 colon, in the test on K-562 leukemia, in the test on HT29 colon, with NCI/ADR-RES ovarian, in the test with A498 renal and in the test with MCF7 breast was > 100 µM each time. Further, the TGI with HS 578T breast, in the test with SK-MEL-28 melanoma and with A549 NSCLC was > 100 µM in each case.

With `CCn1c(-c2cc3ccccc3cc2O)nn(C(=O)c2c(Cl)cccc2Cl)c1=S`, the GI50 was 40.3 µM in the test on COLO 205 colon; 14.3 µM with K-562 leukemia; > 50 µM in the test with HT29 colon; > 50 µM with NCI/ADR-RES ovarian; > 50 µM in the test on MCF7 breast; 24.2 µM with HOP-62 NSCLC. Besides, the results for the GI50 in the test on HS 578T breast, in the test with SK-MEL-28 melanoma and in the test with A549 NSCLC were 8.76 µM, > 50 µM and > 50 µM, respectively. Further, the TGI with COLO 205 colon, in the test with K-562 leukemia, in the test with HT29 colon, with NCI/ADR-RES ovarian, with MCF7 breast and with HOP-62 NSCLC was > 50 µM in each case. The TGI was 21.5 µM in the test on HS 578T breast, > 50 µM with SK-MEL-28 melanoma and > 50 µM in the test with A549 NSCLC.
